These results are taken from patent US7465806B2, “Pyrrole-derivatives as factor Xa inhibitors” (SANOFI-AVENTIS Deutschland GmbH, priority 2004, dated 2008).

The target in this assay is T1, human factor Xa (Homo sapiens, UniProt P00742).
T1 construct: human factor Xa (Enzyme Research Laboratories, Inc; South Bend, Indiana); purchased Enzyme Research Laboratories, Inc; South Bend, Indiana
The experiment in a line: Factor Xa chromogenic assay (inhibition of factor Xa activity). The assay is classed as biochemical. Particulars: inhibition constant for factor Xa; chromogenic substrate S-2765 140 μM, enzyme 0.5 nM, 25° C.; Ki calculated from IC50; read-out: Ki(FXa). The method, then: The ability of the compounds of the formulae I and Ia to inhibit factor Xa or factor VIIa or other enzymes like thrombin, plasmin, or trypsin can be assessed by determining the concentration of the compound of the formulae I and Ia that inhibits enzyme activity by 50%, i.e. the IC50 value, which was related to the inhibition constant Ki. Purified enzymes were used in chromogenic assays. The concentration of inhibitor that causes a 50% decrease in the rate of substrate hydrolysis was determined by linear regression after plotting the relative rates of hydrolysis (compared to the uninhibited control) versus the log of the concentration of the compound of formulae I and Ia. For calculating the inhibition constant Ki, the IC50 value was corrected for competition with substrate using the formula Ki=IC50/{1+(substrate concentration/Km)} wherein Km is the Michaelis-Menten constant (Chen and Prusoff, Biochem. Pharmacol. 22 (1973), 3099-3108; I. H. Segal, Enzyme Kinetics, 1975, John Wiley & Sons, New York, 100-125; which were incorporated herein by reference). a) Factor Xa Assay
In the assay for determining the inhibition of factor Xa activity TBS-PEG buffer (50 mM Tris-HCl, pH 7.8,200 mM NaCl, 0.05% (w/v) PEG-8000, 0.02% (w/v) NaN3) was used. The IC50 was determined by combining in appropriate wells of a Costar half-area microtiter plate 25 μl human factor Xa (Enzyme Research Laboratories, Inc.; South Bend, Indiana) in TBS-PEG; 40 μl 10% (v/v) DMSO in TBS-PEG (uninhibited control) or various concentrations of the compound to be tested diluted in 10% (v/v) DMSO in TBS-PEG; and substrate S-2765 (N(α)-benzyloxycarbonyl-D-Arg-Gly-L-Arg-p-nitroanilide; Kabi Pharmacia, Inc.; Franklin, Ohio) in TBS-PEG.
The assay was performed by pre-incubating the compound of formulae I and Ia plus enzyme for 10 min. Then the assay was initiated by adding substrate to obtain a final volume of 100 μl. The initial velocity of chromogenic substrate hydrolysis was measured by the change in absorbance at 405 nm using a Bio-tek Instruments kinetic plate reader (Ceres UV900HDi) at 25° C. during the linear portion of the time course (usually 1.5 min after addition of substrate). The enzyme concentration was 0.5 nM and substrate concentration was 140 μM.

T1 sequence (P00742 235-488 limits assumed): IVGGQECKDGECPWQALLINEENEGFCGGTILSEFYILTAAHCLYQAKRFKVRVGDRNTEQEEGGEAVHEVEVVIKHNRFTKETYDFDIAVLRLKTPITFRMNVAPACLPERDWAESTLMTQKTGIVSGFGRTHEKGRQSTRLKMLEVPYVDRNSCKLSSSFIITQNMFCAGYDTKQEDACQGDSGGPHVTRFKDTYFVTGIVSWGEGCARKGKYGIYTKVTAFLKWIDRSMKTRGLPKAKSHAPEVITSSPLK
T1 sequence (P00742 41-179 partner limits assumed): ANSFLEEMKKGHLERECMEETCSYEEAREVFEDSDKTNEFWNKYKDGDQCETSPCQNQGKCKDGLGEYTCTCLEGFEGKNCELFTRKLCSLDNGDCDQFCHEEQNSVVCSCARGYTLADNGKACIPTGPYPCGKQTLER

A word on the Ki: it is a dissociation constant, usually derived from enzyme kinetics or from competition with a known ligand. Regarding `CC(C)N1CCC(NC(=O)c2cccn2Cc2cc(-c3ccc(Cl)s3)on2)CC1` [Example 1, 1-[5-(5-Chloro-thiophen-2-yl)-isoxazol-3-ylmethyl]-1H-pyrrole-2-carboxylic acid (1-isopropyl-piperidin-4-yl)-amide], the Ki is 77 nM.

As for `COc1cccc(Cn2cccc2C(=O)NC2CCN(C(C)C)CC2)c1` [Example 2, 1-(3-Methoxy-benzyl)-1H-pyrrole-2-carboxylic acid (1-isopropyl-piperidin-4-yl)-amide], the Ki was 8060 nM.

As to `CC(C)N1CCC(NC(=O)c2cc([N+](=O)[O-])cn2Cc2cc(-c3ccc(Cl)s3)on2)CC1` [Example 3, 1-[5-(5-Chloro-thiophen-2-yl)-isoxazol-3-ylmethyl]-4-nitro-1H-pyrrole-2-carboxylic acid (1-isopropyl-piperidin-4-yl)-amide], the Ki is 43 nM.

Regarding `Cc1cc(C)n(Cc2cc(-c3ccc(Cl)s3)on2)c1C(=O)NC1CCN(C(C)C)CC1` [Example 4, 1-[5-(5-Chloro-thiophen-2-yl)-isoxazol-3-ylmethyl]-3,5-dimethyl-1H-pyrrole-2-carboxylic acid (1-isopropyl-piperidin-4-yl)-amide], the inhibitory constant (Ki) was 11 nM.

Take `CC(C)N1CCC(NC(=O)c2cc(C(=O)N3CCCOCC3)cn2CC(=O)Nc2ccc(Cl)cn2)CC1` [Example 5, 1-[(5-Chloro-pyridin-2-ylcarbamoyl)-methyl]-4-(perhydro-1,4-oxazepine-4-carbonyl)-1H-pyrrole-2-carboxylic acid (1-isopropyl-piperidin-4-yl)-amide]: the inhibitory constant (Ki) is 81 nM.

For the compound `CC(C)N1CCC(NC(=O)c2ccc(C(=O)N3CCCOCC3)n2CC(=O)Nc2ccc(Cl)cn2)CC1` [Example 6, 1-[(5-Chloro-pyridin-2-ylcarbamoyl)-methyl]-5-(perhydro-1,4-oxazepine-4-carbonyl)-1H-pyrrole-2-carboxylic acid (1-isopropyl-piperidin-4-yl)-amide], the inhibition constant Ki is 902 nM.

Consider `CC(C)N1CCC(NC(=O)c2ccc(C(=O)N3CCCOCC3)n2Cc2cc(-c3ccc(Cl)s3)on2)CC1` [Example 7, 1-[5-(5-Chloro-thiophen-2-yl)-isoxazol-3-ylmethyl]-5-(perhydro-1,4-oxazepine-4-carbonyl)-1H-pyrrole-2-carboxylic acid (1-isopropyl-piperidin-4-yl)-amide], for which the inhibition constant (Ki) was 249 nM.

For the compound `Cc1c(CCC(=O)O)c(C)n(Cc2cc(-c3ccc(Cl)s3)on2)c1C(=O)NC1CCN(C(C)C)CC1` [Example 8, 3-[1-[5-(5-Chloro-thiophen-2-yl)-isoxazol-3-ylmethyl]-5-(1-isopropyl-piperidin-4-ylcarbamoyl)-2,4-dimethyl-1H-pyrrol-3-yl]-propionic acid], the Ki was 152 nM.

For `CC(C)N1CCC(NC(=O)c2ccc(C(=O)OCc3ccccc3)n2Cc2cc(-c3ccc(Cl)s3)on2)CC1` [Example 9, 1-[5-(5-Chloro-thiophen-2-yl)-isoxazol-3-ylmethyl]-5-(1-isopropyl-piperidin-4-ylcarbamoyl)-1H-pyrrole-2-carboxylic acid benzyl ester], the inhibition constant Ki is 997 nM.

With `COC(=O)c1ccc(C(=O)NC2CCN(C(C)C)CC2)n1Cc1cc(-c2ccc(Cl)s2)on1` [Example 10, 1-[5-(5-Chloro-thiophen-2-yl)-isoxazol-3-ylmethyl]-5-(1-isopropyl-piperidin-4-ylcarbamoyl)-1H-pyrrole-2-carboxylic acid methyl ester], the inhibition constant Ki is 7 nM.

With `CC(C)N1CCC(NC(=O)c2ccc(C(=O)O)n2Cc2cc(-c3ccc(Cl)s3)on2)CC1` [Example 11, 1-[5-(5-Chloro-thiophen-2-yl)-isoxazol-3-ylmethyl]-5-(1-isopropyl-piperidin-4-ylcarbamoyl)-1H-pyrrole-2-carboxylic acid], the inhibitory constant (Ki) was 294 nM.

In the case of `CC(C)N1CCC(NC(=O)c2cc(C(=O)OCc3ccccc3)n(CC(=O)Nc3ccc(Cl)cn3)c2)CC1` [Example 12, 1-[(5-Chloro-pyridin-2-ylcarbamoyl)-methyl]-4-(1-isopropyl-piperidin-4-ylcarbamoyl)-1H-pyrrole-2-carboxylic acid benzyl ester], the inhibitory constant (Ki) was 34900 nM.

For the compound `CC(C)N1CCC(NC(=O)c2cc(C(=O)OCc3ccccc3)n(Cc3cc(-c4ccc(Cl)s4)on3)c2)CC1` [Example 13, 1-[5-(5-Chloro-thiophen-2-yl)-isoxazol-3-ylmethyl]-4-(1-isopropyl-piperidin-4-ylcarbamoyl)-1H-pyrrole-2-carboxylic acid benzyl ester], the inhibition constant Ki was 9580 nM.

Consider `CC(C)N1CCC(NC(=O)c2cc([N+](=O)[O-])cn2CC(=O)Nc2ccc(Cl)cn2)CC1` [Example 14, 1-[(5-Chloro-pyridin-2-ylcarbamoyl)-methyl]-4-nitro-1H-pyrrole-2-carboxylic acid (1-isopropyl-piperidin-4-yl)-amide], for which the inhibitory constant (Ki) was 59 nM.

Regarding `COC(=O)c1cc(C(=O)NC2CCN(C(C)C)CC2)cn1CC(=O)Nc1ccc(Cl)cn1` [Example 15, 1-[(5-Chloro-pyridin-2-ylcarbamoyl)-methyl]-4-(1-isopropyl-piperidin-4-ylcarbamoyl)-1H-pyrrole-2-carboxylic acid methyl ester], the Ki was 41300 nM.

`COC(=O)c1cc(C(=O)NC2CCN(C(C)C)CC2)cn1Cc1cc(-c2ccc(Cl)s2)on1` [Example 16, 1-[5-(5-Chloro-thiophen-2-yl)-isoxazol-3-ylmethyl]-4-(1-isopropyl-piperidin-4-ylcarbamoyl)-1H-pyrrole-2-carboxylic acid methyl ester]: the Ki is 1440 nM.

As for `CC(C)N1CCC(NC(=O)c2cc(C(=O)O)n(Cc3cc(-c4ccc(Cl)s4)on3)c2)CC1` [Example 17, 1-[5-(5-Chloro-thiophen-2-yl)-isoxazol-3-ylmethyl]-4-(1-isopropyl-piperidin-4-ylcarbamoyl)-1H-pyrrole-2-carboxylic acid], the inhibition constant Ki was 8990 nM.

For `COCCNC(=O)c1ccc(C(=O)NC2CCN(C(C)C)CC2)n1Cc1cc(-c2ccc(Cl)s2)on1` [Example 19, 1-[5-(5-Chloro-thiophen-2-yl)-isoxazol-3-ylmethyl]-1H-pyrrole-2,5-di carboxylic acid 2-[(1-isopropyl-piperidin-4-yl)-amide] 5-[(2-methoxy-ethyl)-amide]], the inhibitory constant (Ki) was 88 nM.

In the case of `COCCN(C)C(=O)c1ccc(C(=O)NC2CCN(C(C)C)CC2)n1Cc1cc(-c2ccc(Cl)s2)on1` [Example 20, 1-[5-(5-Chloro-thiophen-2-yl)-isoxazol-3-ylmethyl]-1H-pyrrole-2,5-dicarboxylic acid 2-[(1-isopropyl-piperidin-4-yl)-amide] 5-[(2-methoxy-ethyl)-methyl-amide]], the inhibitory constant (Ki) was 57 nM.

For the compound `CC(C)N1CCC(NC(=O)c2ccc(-c3ccccc3)n2Cc2cc(-c3ccc(Cl)s3)on2)CC1` [Example 21, 1-[5-(5-Chloro-thiophen-2-yl)-isoxazol-3-ylmethyl]-5-phenyl-1H-pyrrole-2-carboxylic acid (1-isopropyl-piperidin-4-yl)-amide], the Ki was 5 nM.

In the case of `Cc1c(S(=O)(=O)N2CCCOCC2)c(C)n(Cc2cc(-c3ccc(Cl)s3)on2)c1C(=O)NC1CCN(C(C)C)CC1` [Example 22, 1-[5-(5-Chloro-thiophen-2-yl)-isoxazol-3-ylmethyl]-3,5-dimethyl-4-(perhydro-1,4-oxazepine-4-sulfonyl)-1H-pyrrole-2-carboxylic acid (1-isopropyl-piperidin-4-yl)-amide], the Ki is 112 nM.

With `Cc1c(Br)c(C)n(Cc2cc(-c3ccc(Cl)s3)on2)c1C(=O)NC1CCN(C(C)C)CC1` [Example 23, 4-Bromo-1-[5-(5-chloro-thiophen-2-yl)-isoxazol-3-ylmethyl]-3,5-dimethyl-1H-pyrrole-2-carboxylic acid (1-isopropyl-piperidin-4-yl)-amide], the Ki was 5 nM.

Take `Cc1c(Br)c(C)n(CC(=O)Nc2ccc(Cl)cn2)c1C(=O)NC1CCN(C(C)C)CC1` [Example 24, 4-Bromo-1-[(5-chloro-pyridin-2-ylcarbamoyl)-methyl]-3,5-dimethyl-1H-pyrrole-2-carboxylic acid (1-isopropyl-piperidin-4-yl)-amide]: the Ki is 11 nM.

On to `Cc1c(C=O)c(C)n(Cc2cc(-c3ccc(Cl)s3)on2)c1C(=O)NC1CCN(C(C)C)CC1` [Example 25, 1-[5-(5-Chloro-thiophen-2-yl)-isoxazol-3-ylmethyl]-4-formyl-3,5-dimethyl-1H-pyrrole-2-carboxylic acid (1-isopropyl-piperidin-4-yl)-amide], for which the inhibitory constant (Ki) was 24 nM.
